# In paper PMC7619385 (ACS infectious diseases, 2025):
# Where a name gives a salt, the structure may show the parent alone. Read-outs that look alike come from different tables or passages of the source.
# Target: T1, LmxCLK1 (Leishmania mexicana, UniProt E9AMP2)
# T1 sequence (E9AMP2 1-422): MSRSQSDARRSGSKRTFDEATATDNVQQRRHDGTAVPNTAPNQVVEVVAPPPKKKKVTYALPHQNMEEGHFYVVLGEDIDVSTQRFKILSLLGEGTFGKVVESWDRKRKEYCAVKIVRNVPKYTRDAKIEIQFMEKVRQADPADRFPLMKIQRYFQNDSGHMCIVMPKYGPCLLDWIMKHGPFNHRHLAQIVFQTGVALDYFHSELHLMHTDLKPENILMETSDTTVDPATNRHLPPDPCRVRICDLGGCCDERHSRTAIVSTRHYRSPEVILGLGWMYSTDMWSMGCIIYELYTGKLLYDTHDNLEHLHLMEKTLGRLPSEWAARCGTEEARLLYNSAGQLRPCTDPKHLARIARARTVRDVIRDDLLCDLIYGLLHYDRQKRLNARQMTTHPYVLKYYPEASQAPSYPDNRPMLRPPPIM
# Test: biochemical
# Assay type: binding
# [1] = DSF, 10 µM compound, 2 µM LmxCLK1, Run 1
# [2] = DSF, 10 µM compound, 2 µM LmxCLK1, Run 2
# [3] = DSF, 10 µM compound, 2 µM LmxCLK1, mean of two runs
# [4] = DSF, 10 µM compound, 2 µM LmxCLK1, Run 1, read-out: ΔTm Run 1
# [5] = DSF, 10 µM compound, 2 µM LmxCLK1, Run 2, read-out: ΔTm Run 2
# [6] = DSF, 10 µM compound, 2 µM LmxCLK1, mean of two runs, read-out: ΔTm Average
SMILES,ΔTm Run 1 [1] [°C],ΔTm Run 2 [2] [°C],ΔTm Average [3] [°C],ΔTm at 10 µM [4] [°C],ΔTm at 10 µM [5] [°C],ΔTm at 10 µM [6] [°C],other results
CCN(CC)CCCC(C)Nc1nc(C)cc(Nc2ccc3nc(C)cc(N)c3c2)n1 (stereo not drawn) [NSC 23766],0.0,-0.1,0.0,–,–,–,–
Nc1nc(N)c(N=O)c(OCC2CCCCC2)n1 [NU6027],–,–,–,–,–,–,ΔTm at 10 µM (read-out: ΔTm Average): 0 °C; ΔTm at 10 µM (read-out: ΔTm Run 1): 0.1 °C; ΔTm at 10 µM (read-out: ΔTm Run 2): -0.2 °C
O=c1cc(N2CCOCC2)oc2c(-c3cccc4c3sc3ccccc34)cccc12 [NU7441 (KU-57788)],0.0,-0.2,-0.1,–,–,–,–
Nc1ncnc2c1c(-c1cccc(OCc3ccccc3)c1)cn2C1CC(CN2CCCC2)C1 (stereo not drawn) [NVP-ADW742],0.0,-0.2,-0.1,–,–,–,–
Nc1ncnc2c1c(-c1cccc(OCc3ccccc3)c1)cn2[C@H]1C[C@@H](CN2CCC2)C1 [NVP-AEW541],–,–,–,0.1,-0.1,0,–
Cc1ccc(C(=O)Nc2cccc(C(F)(F)F)c2)cc1Nc1nc(-c2cccnc2)nc2c1cnn2C [NVP-BHG712],0.1,-0.3,-0.1,–,–,–,–
Cl.Cl.Fc1cc(-c2cccc3ncc(-c4cnn(C5CCNCC5)c4)nc23)cc(F)c1CN1CCOCC1 [NVP-BSK805 2HCl],0.9,0.7,0.8,–,–,–,–
Cn1cc(-c2ccc3ncc(Cc4ccc5ncccc5c4)n3n2)cn1 [NVP-BVU972],0.3,0.0,0.2,–,–,–,–
Cc1cn(-c2cc(NC(=O)c3ccc(C)c(Nc4nccc(-c5cccnc5)n4)c3)cc(C(F)(F)F)c2)cn1 [Nilotinib (AMN-107)],0.0,0.0,0.0,–,–,–,–
C[C@]1(O)C[C@@H](c2nc(-c3ccc4ccc(-c5ccccc5)nc4c3)c3c(N)nccn32)C1 [OSI-906 (Linsitinib)],0.0,-0.3,-0.2,–,–,–,–
NCC(=O)Nc1ccc(-n2nc(C(F)(F)F)cc2-c2ccc3c(ccc4ccccc43)c2)cc1 [OSU-03012 (AR-12)],-0.1,0.2,0.0,–,–,–,–
CN1CCC(c2c(O)cc(O)c3c(=O)cc(-c4ccccc4Cl)oc23)C1CO (stereo not drawn) [P276-00],–,–,–,–,–,–,ΔTm Average: 0.3 °C; ΔTm Run 1: 0.4 °C; ΔTm Run 2: 0.3 °C
C=CC(=O)Nc1ccc2ncnc(Nc3cccc(Br)c3)c2c1 [PD168393],0.3,-0.7,-0.2,–,–,–,–
CCN(CC)CCCCNc1ncc2cc(-c3cc(OC)cc(OC)c3)c(NC(=O)NC(C)(C)C)nc2n1 [PD173074],–,–,–,0.1,-0.1,0,–
CSc1cccc(Nc2ncc3cc(-c4c(Cl)cccc4Cl)c(=O)n(C)c3n2)c1 [PD173955],0.0,-0.3,-0.1,–,–,–,–
O=C(NOCC(O)CO)c1cc(Br)c(F)c(F)c1Nc1ccc(I)cc1F (stereo not drawn) [PD318088],0.4,0.1,0.2,–,–,–,–
Cn1cc(-c2[nH]c3cc(NC(=O)[C@H](N)C4CCCCC4)cc4c3c2C=NNC4=O)cn1 [PF-477736],–,–,–,1.3,1.2,1.2,–
CN(c1ncccc1CNc1nc(Nc2ccc3c(c2)CC(=O)N3)ncc1C(F)(F)F)S(C)(=O)=O [PF-00562271],–,–,–,–,–,–,ΔTm Average: -0.1; ΔTm Run 1: 0 °C; ΔTm Run 2: -0.3
CN(c1ncccc1CNc1nc(Nc2ccc3c(c2)CC(=O)N3)ncc1C(F)(F)F)S(C)(=O)=O [PF-562271],0.3,-0.1,0.1,–,–,–,–
CS(=O)(=O)c1cccc(CNc2nc(Nc3ccc4c(c3)CCC(=O)N4)ncc2C(F)(F)F)c1 [PF-573228],0.1,-0.3,-0.1,–,–,–,–
Cc1nc(Nc2[nH]nc3c2CN(C(=O)N[C@H](CN(C)C)c2ccccc2)C3(C)C)c2sccc2n1 [PF-3758309],–,–,–,0.7,0.5,0.6,–
OCCn1cc(-c2cnc3nnn(Cc4ccc5ncccc5c4)c3n2)cn1 [PF-04217903],–,–,–,–,–,–,ΔTm Average: 0.2 °C; ΔTm Run 1: 0.1 °C; ΔTm Run 2: 0.3 °C
CCc1cncnc1N1CCN(Cc2nc3ccc(C(F)(F)F)cc3[nH]2)CC1 [PF-4708671],–,–,–,–,–,–,ΔTm Average: -0.1; ΔTm Run 1: 0.1 °C; ΔTm Run 2: -0.2
CNC(=O)c1ccc(C)c(-n2c(C)cc(OCc3ccc(F)cc3F)c(Br)c2=O)c1 [PH-797804],–,–,–,-0.1,-0.3,-0.2,–

SMILES,ΔTm Run 1 [1] [°C],ΔTm Run 2 [2] [°C],ΔTm Average [3] [°C],ΔTm at 10 µM [4] [°C],ΔTm at 10 µM [5] [°C],ΔTm at 10 µM [6] [°C],other results
Cc1[nH]c(/C=C2\C(=O)Nc3ccc(S(=O)(=O)Cc4c(Cl)cccc4Cl)cc32)c(C)c1C(=O)N1CCC[C@@H]1CN1CCCC1 [PHA-665752],–,–,–,0.1,0.1,0.1,–
CCc1cccc(CC)c1NC(=O)N1Cc2n[nH]c(NC(=O)c3ccc(N4CCN(C)CC4)cc3)c2C1 [PHA-680632],–,–,–,0.7,0.6,0.6,–
O=C1NCCc2[nH]c(-c3ccncc3)cc21 [PHA-767491],0.7,1.3,1.0,–,–,–,–
CC(C)CC(=O)Nc1[nH]nc2c1CN(C(=O)C1CCN(C)CC1)C2(C)C [PHA-793887],–,–,–,0.1,0,0.1,–
Oc1cccc(-c2nc(N3CCOCC3)c3oc4ncccc4c3n2)c1 [PI-103],–,–,–,0,0,0,–
Cc1ccc([N+](=O)[O-])cc1S(=O)(=O)N(C)/N=C/c1cnc2ccc(Br)cn12 [PIK-75],–,–,–,–,–,–,ΔTm Average: 0.3 °C; ΔTm Run 1: 0.5 °C; ΔTm Run 2: 0.1 °C
CC(=O)Nc1nc(C)c(-c2ccc(Cl)c(S(=O)(=O)NCCO)c2)s1 [PIK-93],–,–,–,–,–,–,ΔTm Average: 0 °C; ΔTm Run 1: 0 °C; ΔTm Run 2: -0.1
Cc1ccccc1-n1c(Cn2ncc3c(N)ncnc32)nc2cccc(C)c2c1=O [PIK-293],0.1,-0.2,-0.1,–,–,–,–
CCCS(=O)(=O)Nc1ccc(F)c(C(=O)c2c[nH]c3ncc(Cl)cc23)c1F [PLX-4720],–,–,–,-0.3,-0.1,-0.2,–
Cc1ccc(-c2nn(C(C)(C)C)c3ncnc(N)c23)cc1 [PP1],–,–,–,–,–,–,ΔTm Average: 0 °C; ΔTm Run 1: 0.2 °C; ΔTm Run 2: -0.2
NC(=O)c1cnc(N[C@@H]2CCCC[C@@H]2N)nc1Nc1cccc(-n2nccn2)c1 [PRT062607 (P505-15)],–,–,–,–,–,–,ΔTm Average: 1.3 °C; ΔTm Run 1: 1.3 °C; ΔTm Run 2: 1.3 °C
C1=N/C2=N/c3ccc(OCCN4CCCC4)c(c3)COC/C=C/COCc3cccc(c3)C(=C1)N2 [Pacritinib (SB1518)],0.2,0.1,0.2,–,–,–,–
CC(=O)c1c(C)c2cnc(Nc3ccc(N4CCNCC4)cn3)nc2n(C2CCCC2)c1=O.Cl [Palbociclib (PD-0332991) HCl],0.6,0.4,0.5,–,–,–,–
COc1ccc(COc2cc3oc(=O)c4cc(C(C)O)ccc4c3cc2OC)cc1 (stereo not drawn) [Palomid 529 (P529)],0.3,-0.1,0.1,–,–,–,–
Cc1ccc(Nc2nccc(N(C)c3ccc4c(C)n(C)nc4c3)n2)cc1S(N)(=O)=O.Cl [Pazopanib HCl (GW786034 HCl)],-0.1,0.0,-0.1,–,–,–,–
Cc1ccc(Nc2nccc(N(C)c3ccc4c(C)n(C)nc4c3)n2)cc1S(N)(=O)=O [Pazopanib],–,–,–,0.1,-0.4,-0.2,–
[H]/N=C(/N)N/C(=N/[H])NCCc1ccccc1 [Phenformin HCl],–,–,–,0,-0.4,-0.2,–
Oc1cc(O)cc(/C=C/c2ccc(O)c(O)c2)c1 [Piceatannol],–,–,–,0,0.1,0.1,–
O=C(NC[C@H](O)CO)c1ccncc1Nc1ccc(I)cc1F [Pimasertib (AS-703026)],0.2,-0.1,0.0,–,–,–,–
Cc1ccc(C(=O)Nc2ccc(CN3CCN(C)CC3)c(C(F)(F)F)c2)cc1C#Cc1cnc2cccnn12 [Ponatinib (AP24534)],0.0,-0.1,-0.1,–,–,–,–
O=c1c(O)c(-c2ccc(O)c(O)c2)oc2cc(O)cc(O)c12 [Quercetin],–,–,–,0.5,0.6,0.5,–
CC(C)(C)c1cc(NC(=O)Nc2ccc(-c3cn4c(n3)sc3cc(OCCN5CCOCC5)ccc34)cc2)no1 [Quizartinib (AC220)],–,–,–,0.3,0.2,0.3,–
COc1cc(Nc2ncc(F)c(Nc3ccc4c(n3)NC(=O)C(C)(C)O4)n2)cc(OC)c1OC [R406 (free base)],0.0,0.0,0.0,–,–,–,–
COc1ccc(F)c(F)c1C(=O)c1cnc(NC2CCN(S(C)(=O)=O)CC2)nc1N [R547],–,–,–,–,–,–,ΔTm Average: -0.2; ΔTm Run 1: 0 °C; ΔTm Run 2: -0.4
